This is an account of results in patent US9371331B2, “Modulators of methyl modifying enzymes, compositions and uses thereof” (Constellation Pharmaceuticals, Inc., priority 2012, dated 2016).

The target in assay [1] is Y641N EZH2 (Homo sapiens, UniProt Q15910, Y641N). Put plainly: Y641N EZH2 assay: as EZH2 assay, with reconstituted H3K27Me2 oligonucleosomes as substrate. It counts as biochemical.
The target of assay [2] is EZH2 (rPRC2) (Homo sapiens, UniProt Q15910). Put plainly: EZH2 assay: rPRC2, biotinylated oligonucleosomes, 3H SAM methyl transfer (FlashPlate scintillation). It is filed as biochemical. As to conditions: biotinylated oligonucleosome substrate.
Sequence of EZH2 (rPRC2) (Q15910 whole entry): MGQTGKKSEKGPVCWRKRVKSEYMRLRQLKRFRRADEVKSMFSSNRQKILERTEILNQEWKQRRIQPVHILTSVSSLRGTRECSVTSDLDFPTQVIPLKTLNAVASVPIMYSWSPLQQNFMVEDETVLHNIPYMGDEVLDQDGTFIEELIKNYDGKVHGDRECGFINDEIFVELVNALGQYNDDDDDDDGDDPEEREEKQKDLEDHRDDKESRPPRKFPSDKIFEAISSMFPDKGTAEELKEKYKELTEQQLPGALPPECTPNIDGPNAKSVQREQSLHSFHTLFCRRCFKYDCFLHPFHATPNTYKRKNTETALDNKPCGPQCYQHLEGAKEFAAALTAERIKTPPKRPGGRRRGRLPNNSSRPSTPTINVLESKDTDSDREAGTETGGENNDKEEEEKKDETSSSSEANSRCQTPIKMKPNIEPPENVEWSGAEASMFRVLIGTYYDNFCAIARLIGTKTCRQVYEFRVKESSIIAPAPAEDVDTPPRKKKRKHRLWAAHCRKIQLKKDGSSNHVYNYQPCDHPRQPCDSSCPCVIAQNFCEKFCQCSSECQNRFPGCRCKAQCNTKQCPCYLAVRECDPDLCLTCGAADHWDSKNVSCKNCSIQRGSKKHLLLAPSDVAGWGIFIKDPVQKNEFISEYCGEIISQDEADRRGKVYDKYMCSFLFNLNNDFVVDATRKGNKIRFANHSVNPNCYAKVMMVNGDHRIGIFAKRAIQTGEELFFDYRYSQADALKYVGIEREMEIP
Sequence of EZH2 (rPRC2) (O75530 whole entry partner): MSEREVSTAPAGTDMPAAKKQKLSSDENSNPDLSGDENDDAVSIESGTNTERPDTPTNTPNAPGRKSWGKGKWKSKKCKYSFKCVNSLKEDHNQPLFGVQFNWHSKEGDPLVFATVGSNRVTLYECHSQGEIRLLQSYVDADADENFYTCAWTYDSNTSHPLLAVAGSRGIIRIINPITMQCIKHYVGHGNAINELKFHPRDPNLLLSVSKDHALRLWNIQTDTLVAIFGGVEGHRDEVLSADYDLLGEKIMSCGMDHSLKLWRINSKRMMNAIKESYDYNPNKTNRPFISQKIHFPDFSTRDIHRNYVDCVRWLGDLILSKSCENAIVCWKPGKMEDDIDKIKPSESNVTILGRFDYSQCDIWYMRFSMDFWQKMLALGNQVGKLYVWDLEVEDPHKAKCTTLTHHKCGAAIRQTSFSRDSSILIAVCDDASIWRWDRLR
Sequence of EZH2 (rPRC2) (Q15022 whole entry partner): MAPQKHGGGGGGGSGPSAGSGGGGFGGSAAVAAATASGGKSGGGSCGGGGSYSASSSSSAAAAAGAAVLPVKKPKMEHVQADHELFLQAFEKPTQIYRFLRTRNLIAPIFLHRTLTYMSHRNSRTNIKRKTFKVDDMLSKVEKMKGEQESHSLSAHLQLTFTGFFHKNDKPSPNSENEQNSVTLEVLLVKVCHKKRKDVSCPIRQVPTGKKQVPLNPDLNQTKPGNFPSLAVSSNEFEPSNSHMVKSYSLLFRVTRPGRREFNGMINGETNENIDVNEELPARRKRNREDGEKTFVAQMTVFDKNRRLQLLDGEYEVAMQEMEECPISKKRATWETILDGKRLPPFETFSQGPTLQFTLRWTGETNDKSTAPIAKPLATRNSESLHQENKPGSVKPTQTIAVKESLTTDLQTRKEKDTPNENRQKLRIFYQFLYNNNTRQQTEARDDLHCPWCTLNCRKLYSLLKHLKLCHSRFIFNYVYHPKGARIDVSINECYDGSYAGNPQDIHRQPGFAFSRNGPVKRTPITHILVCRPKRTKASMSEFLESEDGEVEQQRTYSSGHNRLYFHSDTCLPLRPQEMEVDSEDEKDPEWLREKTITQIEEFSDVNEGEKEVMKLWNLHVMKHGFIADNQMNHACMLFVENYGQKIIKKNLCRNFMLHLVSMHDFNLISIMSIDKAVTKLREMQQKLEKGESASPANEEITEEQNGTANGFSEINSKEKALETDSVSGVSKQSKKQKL
Where [3] appears, read: Y641N EZH2 IC50, Y641N mutant EZH2, H3K27Me2 oligonucleosome substrate.
The mark [4] stands for this setting: EZH2 IC50, wild-type EZH2 (rPRC2).
Setting [5] is: Y641N mutant EZH2, H3K27Me2 oligonucleosome substrate.
The mark [6] stands for this setting: Y641N mutant EZH2, H3K27Me2 oligonucleosome substrate, read-out: Y641N EZH2 IC50.
Where [7] appears, read: wild-type EZH2 (rPRC2), read-out: EZH2 IC50.

Molecules are shown by their SMILES. Counter-ions that a name gives are not always drawn. Like-named read-outs stand apart in the source and are kept apart here. Bounds are passed on as bounds.

Sequence of Y641N EZH2 (Q15910 whole entry Y641N): as the sequence (Q15910 whole entry) above, with Y641N counted along it
Sequence of Y641N EZH2 (O75530 whole entry partner): as the sequence (O75530 whole entry partner) above
Sequence of Y641N EZH2 (Q15022 whole entry partner): as the sequence (Q15022 whole entry partner) above

With `COc1cc(C)[nH]c(=O)c1CNC(=O)c1c(C)n(C(C)C2CCS(=O)(=O)CC2)c2ccccc12` (single isomer, unassigned) [Compound 305, (R or S)-1-(1-(1,1-dioxidotetrahydro-2H-thiopyran-4-yl)ethy1)-N-((4-methoxy-6-methyl-2-oxo-1,2-dihydropyridin-3-yl)methy1)-2-methyl-1H-indole-3-carboxamide], the IC50 in assay [1] (setting [3]) was 0.1 to 1 µM; in assay [2] (setting [4]), under 0.1 µM.
The like results for `COc1cc(C)[nH]c(=O)c1CNC(=O)c1c(C)n(C(C)C(C)OC)c2ccccc12` (single isomer, unassigned) [Compound 307, Trans-(R or S, R or S)-N-((4-methoxy-6-methyl-2-oxo-1,2-dihydropyridin-3-yl)methyl)-1-(3-methoxybutan-2-yl)-2-methyl-1H-indole-3-carboxamide] were, in that order, under 0.1 µM and under 0.1 µM.
The like results for `COc1cc(C)[nH]c(=O)c1CNC(=O)c1c(C)n(C(C)C(C)OC)c2ccccc12` (single isomer, unassigned) [Compound 308, Trans-(R or S, R or S)-N-((4-methoxy-6-methyl-2-oxo-1,2-dihydropyridin-3-yl)methyl)-1-(3-methoxybutan-2-yl)-2-methyl-1H-indole-3-carboxamide] were, in that order, 0.1 to 1 µM and 0.1 to 1 µM.
The like results for `COc1cc(C)[nH]c(=O)c1CNC(=O)c1c(C)n(C(C)C2CCN(CC(=O)O)CC2)c2ccccc12` (single isomer, unassigned) [Compound 364, (R or S)-2-(4-(1-(3-((4-methoxy-6-methyl-2-oxo-1,2-dihydropyridin-3-yl)methylcarbamoyl)-2-methyl-1H-indol-1-yl)ethyl)piperidin-1-yl) acetic acid] were, in that order, 0.1 to 1 µM and under 0.1 µM.
As for `Cc1cc(C)c(CNC(=O)c2c(C)n(C(C)C3CCN(C4CNC4)CC3)c3ccccc23)c(=O)[nH]1` (single isomer, unassigned) [Compound 376, (R or S)-1-(1-(1-(azetidin-3-yl)piperidin-4-yl)ethyl)-N-((4,6-dimethyl-2-oxo-1,2-dihydropyridin-3-yl)methyl)-2-methyl-1 H-indole-3-carboxamide hydrochloride], the half-inhibitory concentration (IC50) in assay [1] (setting [3]) and in assay [2] (setting [4]) was under 0.1 µM throughout.
For the compound `Cc1cc(C)c(CNC(=O)c2c(-c3ccccc3)n(C(C)c3ccccc3)c3ccccc23)c(O)n1` (single isomer, unassigned) [Compound 445, (R or S)-N-((2-hydroxy-4,6-dimethylpyridin-3-yl)methyl)-2-phenyl-1-(1-phenylethyl)-1H-indole-3-carboxamide], the “Y641N EZH2 IC50” value in assay [1] (setting [5]) is listed as “*(10 uM)”. In assay [2] (wild-type EZH2 (rPRC2)), the “EZH2 IC50” value is recorded as “*(10 uM)”.
On to `Cc1cc(C)c(CNC(=O)c2cnn(-c3ccccc3)c2C)c(=O)[nH]1` [Compound 100, N-((4,6-dimethyl-2-oxo-1,2-dihydropyridin-3-yl)methyl)-5-methyl-1-phenyl-1H-pyrazole-4-carboxamide], for which the half-inhibitory concentration (IC50) in assay [1] (setting [6]) is over 10 µM; in assay [2] (setting [7]) it was 1 to 10 µM.
Regarding `Cc1cc(C)c(CNC(=O)c2cnn(Cc3ccccc3)c2C)c(O)n1` [Compound 109, 1-benzyl-N-((2-hydroxy-4,6-dimethylpyridin-3-yl)methyl)-5-methyl-1H-pyrazole-4-carboxamide], in assay [1] (setting [5]), the “Y641N EZH2 IC50” value is listed as “*(10 μM)”. Also, the “EZH2 IC50” value in assay [2] (wild-type EZH2 (rPRC2)) is given as “*(10 μM)”.
Take `Cc1cc(C)c(CNC(=O)c2cnn(CCc3ccccc3)c2C)c(O)n1` [Compound 110, N-((2-hydroxy-4,6-dimethylpyridin-3-yl)methyl)-5-methyl-1-phenethyl-1H-pyrazole-4-carboxamide]: the “Y641N EZH2 IC50” value in assay [1] (setting [5]) is listed as “*(10 μM)”. Further, the “EZH2 IC50” value in assay [2] (wild-type EZH2 (rPRC2)) is given as “*(10 μM)”.
As to `Cc1cc(C)c(CNC(=O)c2nn(C(C)c3ccccc3)c3ccccc23)c(O)n1` (stereo not shown) [Compound 112, N-((2-hydroxy-4,6-dimethylpyridin-3-yl)methyl)-1-(1-phenylethyl)-1H-indazole-3-carboxamide], the “Y641N EZH2 IC50” value in assay [1] (setting [5]) is listed as “*(10 μM)”. Besides, the “EZH2 IC50” value in assay [2] (wild-type EZH2 (rPRC2)) was “*(10 μM)”.
On to `Cc1cc(C)c(CNC(=O)c2cn(-c3ccccc3C)c3ccccc23)c(O)n1` [Compound 113, N-((2-hydroxy-4,6-dimethylpyridin-3-yl)methyl)-1-(o-tolyl)-1H-indole-3-carboxamide], for which the IC50 was in the range of 1 to 10 µM in assay [1] (setting [6]) and 0.1 to 1 µM in assay [2] (setting [7]).
Regarding `Cc1cc(C)c(CNC(=O)c2c(C)n(Cc3ccccc3)c3ccccc23)c(O)n1` [Compound 119, 1-benzyl-N-((2-hydroxy-4,6-dimethylpyridin-3-yl)methyl)-2-methyl-1H-indole-3-carboxamide], the values for the concentration for half-maximal inhibition (IC50) in assay [1] (setting [3]) and in assay [2] (setting [4]) were 0.1 to 1 µM and under 0.1 µM, respectively.
On to `Cc1cc(C)c(CNC(=O)c2c(C)n(-c3ccccc3)c3ccccc23)c(O)n1` [Compound 133, N-((2-hydroxy-4,6-dimethylpyridin-3-yl)methyl)-2-methyl-1-phenyl-1H-indole-3-carboxamide], for which the half-maximal inhibitory concentration (IC50) was 0.1 to 1 µM in assay [1] (setting [6]) and under 0.1 µM in assay [2] (setting [7]).
With `Cc1cc(C)c(CNC(=O)c2cn(S(=O)(=O)c3ccccc3)c3ccccc23)c(=O)[nH]1` [Compound 135, N-((4,6-dimethyl-2-oxo-1,2-dihydropyridin-3-yl)methyl)-1-(phenylsulfonyl)-1H-indole-3-carboxamide], the values for the IC50 in assay [1] (setting [6]) and in assay [2] (setting [7]) were over 10 µM and 1 to 10 µM, respectively.
As to `COc1ncc2c(C(=O)NCc3c(C)cc(C)nc3O)c(C)n([C@H](C)c3ccccc3)c2n1` [Compound 141, (R)—N-((2-hydroxy-4,6-dimethylpyridin-3-yl)methyl)-2-methoxy-6-methyl-7-(1-phenylethyl)-7H-pyrrolo[2,3-d]pyrimidine-5-carboxamide], the half-inhibitory concentration (IC50) in assay [1] (setting [3]) was in the range of 1 to 10 µM; in assay [2] (setting [4]) it was 0.1 to 1 µM.
The like results for `Cc1cc(C)c(CNC(=O)c2c(C)n([C@H](C)c3ccccc3)c3nc(N4CCCC4)ncc23)c(O)n1` [Compound 142, (R)—N-((2-hydroxy-4,6-dimethylpyridin-3-yl)methyl)-6-methyl-7-(1-phenylethyl)-2-(pyrrolidin-1-yl)-7H-pyrrolo[2,3-d]pyrimidine-5-carboxamide] were, in that order, 1 to 10 µM and 0.1 to 1 µM.
The like results for `Cc1cc(C)c(CNC(=O)c2c(C)n(Cc3cncnc3)c3ccccc23)c(=O)[nH]1` [Compound 149, N-((4,6-dimethyl-2-oxo-1,2-dihydropyridin-3-yl)methyl)-2-methyl-1-(pyrimidin-5-ylmethyl)-1H-indole-3-carboxamide] were, in that order, 1 to 10 µM and 0.1 to 1 µM.
Turning to `Cc1cc(C)c(CNC(=O)c2c(C)n(C(=O)c3ccccc3)c3ccccc23)c(O)n1` [Compound 150, 1-benzoyl-N-((2-hydroxy-4,6-dimethylpyridin-3-yl)methyl)-2-methyl-1H-indole-3-carboxamide], the half-maximal inhibitory concentration (IC50) in assay [1] (setting [6]) and in assay [2] (setting [7]) was 0.1 to 1 µM throughout.
For the compound `Cc1cc(C)c(CNC(=O)c2c(C)n([C@H](C)c3ccccc3)c3nc(Cl)ncc23)c(O)n1` [Compound 167], the half-maximal inhibitory concentration (IC50) in assay [1] (setting [3]) and in assay [2] (setting [4]) was 0.1 to 1 µM each time.
For the compound `Cc1cc(C)c(CNC(=O)c2c(C)n([C@H](C)c3ccccc3)c3nc(C4CCOCC4)ncc23)c(O)n1` [Compound 168, (R)-N-((2-hydroxy-4,6-dimethylpyridin-3-yl)methyl)-6-methyl-7-(1-phenylethyl)-2-(tetrahydro-2H-pyran-4-yl)-7H-pyrrolo[2,3-d]pyrimidine-5-carboxamide], the figures for the 50% inhibitory concentration (IC50) in assay [1] (setting [6]) and in assay [2] (setting [7]) were 1 to 10 µM and 0.1 to 1 µM, respectively.
As for `Cc1cc(C)c(CNC(=O)c2c(C)n(-c3cccc(C)c3C)c3ccccc23)c(=O)[nH]1` [Compound 173, N-((4,6-dimethyl-2-oxo-1,2-dihydropyridin-3-yl)methyl)-1-(2,3-dimethylphenyl)-2-methyl-1H-indole-3-carboxamide], the IC50 in assay [1] (setting [6]) is 0.1 to 1 µM; in assay [2] (setting [7]), under 0.1 µM.
As for `Cc1cc(C)c(CNC(=O)c2c(C)n([C@H](C)c3ccccc3)c3nc(C)ncc23)c(O)n1` [Compound 176, (R)-N-((2-hydroxy-4,6-dimethylpyridin-3-yl)methyl)-2,6-dimethyl-7-(1-phenylethyl)-7H-pyrrolo[2,3-d]pyrimidine-5-carboxamide], the IC50 was 0.1 to 1 µM in assay [1] (setting [3]) and under 0.1 µM in assay [2] (setting [4]).
The like results for `Cc1cc(C)c(CNC(=O)c2c(C)n([C@H](C)c3ccccc3)c3nc(C(C)C)ncc23)c(O)n1` [Compound 177, (R)-N-((2-hydroxy-4,6-dimethylpyridin-3-yl)methyl)-2-isopropyl-6-methyl-7-(1-phenylethyl)-7H-pyrrolo[2,3-d]pyrimidine-5-carboxamide] were, in that order, 0.1 to 1 µM and under 0.1 µM.
For `CC[C@@H](C)n1c(C)c(C(=O)NCc2c(C)cc(C)[nH]c2=O)c2cnc(Cl)nc21` [Compound 184, (R)-7-(sec-butyl)-2-chloro-N-((4,6-dimethyl-2-oxo-1,2-dihydropyridin-3-yl)methyl)-6-methyl-7H-pyrrolo[2,3-d]pyrimidine-5-carboxamide], the IC50 in assay [1] (setting [3]) lay within 1 to 10 µM; in assay [2] (setting [4]) it was 0.1 to 1 µM.
For `CC[C@@H](C)n1c(C)c(C(=O)NCc2c(C)cc(C)nc2O)c2cnc(-c3ccccc3)nc21` [Compound 188, (R)-7-(sec-butyl)-N-((2-hydroxy-4,6-dimethylpyridin-3-yl)methyl)-6-methyl-2-phenyl-7H-pyrrolo [2,3-d]pyrimidine-5-carboxamide], the values for the IC50 in assay [1] (setting [6]) and in assay [2] (setting [7]) were 1 to 10 µM and 0.1 to 1 µM, respectively.
Take `CC[C@@H](C)n1c(C)c(C(=O)NCc2c(C)cc(C)nc2O)c2cncnc21` [Compound 189, (R)-7-(sec-butyl)-N-((2-hydroxy-4,6-dimethylpyridin-3-yl)methyl)-6-methyl-7H-pyrrolo[2,3-d]pyrimidine-5-carboxamide]: the half-maximal inhibitory concentration (IC50) in assay [1] (setting [3]) fell in the range of 1 to 10 µM; in assay [2] (setting [4]), 0.1 to 1 µM.

Broadly, the IC50 is the concentration that inhibits the measured activity by half.
